Data on four compounds can be found in PMC3357308 (Diabetes, 2012).

Data set [1] relates to 11β-reductase and 11β-dehydrogenase activities. Put plainly: Cortisol/cortisone interconversion in the splanchnic circulation. The class given is in vivo, human. The note with it: adjusted for hepatic blood flow, n = 4.
Data set [2] addresses T1, human 11βHSD1 (Homo sapiens, UniProt P28845). The experiment in a line: Competition with [3H]2-cortisone in HEK293/h11βHSD1 cells. The class given is cell-based. To be noted: [3H]2-cortisone 5 nmol/L, competitor 0–4,955 nmol/L, 6–24 h.
Data set [3] relates to 11β-dehydrogenase. The experiment in a line: Primed 3-h d2-cortisone infusion before and after licorice. To be noted: without licorice, whole body, steady state, n = 3.
The target of data set [4] is T1, human 11βHSD1. The class given is cell-based. The note with it: HEK293/h11βHSD1 cells, substrate 2 μmol/L, 1–24 h, n = 6.
The subject of data set [5] is 11β-dehydrogenase. To be noted: extrapolated from generation of d3-cortisone, non–steady-state, adjusted for substrate concentration and volume of distribution; cited from earlier work.
For data set [6], the system named is 11β-reductase and 11β-dehydrogenase activities. The experiment in a line: Cortisol/cortisone interconversion in subcutaneous adipose and skeletal muscle. The class given is in vivo, human. To be noted: arteriovenous difference adjusted for blood flow, n = 6; for Ra (net Ra for cortisone), skeletal muscle release: forearm.
A short description of data set [7]: In vivo pharmacokinetics of d2-cortisone after intravenous bolus. The note with it: iv bolus 141 μg. Details: species or system human.
The test system of data set [8] is 11βHSD1. The note with it: in vivo, d4-cortisol tracer; cited from earlier work.

T1 sequence (P28845 whole entry, the tested form may be a part): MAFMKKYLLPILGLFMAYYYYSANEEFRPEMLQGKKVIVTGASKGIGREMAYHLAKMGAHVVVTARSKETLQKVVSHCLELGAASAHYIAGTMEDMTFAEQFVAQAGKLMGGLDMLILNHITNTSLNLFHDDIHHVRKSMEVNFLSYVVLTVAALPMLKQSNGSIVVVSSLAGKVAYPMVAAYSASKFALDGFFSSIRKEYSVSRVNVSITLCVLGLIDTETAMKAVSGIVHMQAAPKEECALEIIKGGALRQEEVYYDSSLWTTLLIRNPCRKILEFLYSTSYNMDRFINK

Turning to `C[C@]12CCC(=O)C=C1CC[C@@H]1[C@@H]2C(=O)C[C@@]2(C)[C@H]1CC[C@]2(O)C(=O)CO` [cortisone], the “Ra (net Ra for cortisone), splanchnic release” value in data set [1] is given as 19.5 ± 2.8 nmol/min. Besides, in data set [2], the “Vmax for formation of [3H]2-cortisol in the presence of the steroid” value stood at 0.73 ± 0.26 pmol/10^5 cells/min. For the same compound, the “Net Ra of cortisone” value in data set [3] came out at 36 nmol/min. The “production of d2-cortisol or cortisol from the substrate” value in data set [4] is reported as 0.41 ± 0.15 pmol/10^5 cells/min. Moreover, in data set [5], the cortisone production rate was 24 nmol/min. Also, in data set [6], the “Ra (net Ra for cortisone), subcutaneous adipose release” value is 38.7 ± 5.8 pmol/100 g/min and the “Ra (net Ra for cortisone), skeletal muscle release” value (shortened to “Ra … skeletal muscle release”) is on record as 15.2 ± 5.8 pmol/100 mL/min.

Consider `[2H]C1([2H])[C@H](O)[C@@]2([2H])[C@@H](CCC3=CC(=O)CC[C@@]32C)[C@@H]2CC[C@](O)(C(=O)CO)[C@]21C` [d3-cortisol], for which the “Ra … skeletal muscle release” value in data set [6] came to 5.9 ± 1.8 pmol/100 mL/min.

`[2H]C1C(=O)C=C2CC[C@H]3[C@@H]4CC[C@](O)(C(=O)CO)[C@@]4(C)CC(=O)[C@@H]3[C@@]2(C)C1[2H]` (some centres unmarked) [d2-cortisone, 1,2-[^2H]2-Cortisone]: the “Vmax for formation of [3H]2-cortisol in the presence of the steroid” value in data set [2] is 0.83 ± 0.34 pmol/10^5 cells/min. Besides, the “production of d2-cortisol or cortisol from the substrate” value in data set [4] amounted to 0.17 ± 0.05 pmol/10^5 cells/min. Also, the “time tracer could be detected after injection” value in data set [7] (blood) is 1.5 h. In addition, in data set [7] (n = 3), the “area under the curve” value stood at 494 nmol/L per min.

Regarding `C[C@]12CCC(=O)C=C1CC[C@@H]1[C@@H]2[C@@H](O)C[C@@]2(C)[C@H]1CC[C@]2(O)C(=O)CO` [cortisol], the “cortisol released by subcutaneous adipose 11βHSD1” value in data set [8] is reported as ~15 pmol/100 g tissue/min. Moreover, the “Ra … skeletal muscle release” value in data set [6] is 19.7 ± 4.1 pmol/100 mL/min.
